The assay deals with T1, aromatase (CYP19) (Homo sapiens, UniProt P11511).
T1 construct: gene CYP19A1
T1 sequence (P11511 1-503): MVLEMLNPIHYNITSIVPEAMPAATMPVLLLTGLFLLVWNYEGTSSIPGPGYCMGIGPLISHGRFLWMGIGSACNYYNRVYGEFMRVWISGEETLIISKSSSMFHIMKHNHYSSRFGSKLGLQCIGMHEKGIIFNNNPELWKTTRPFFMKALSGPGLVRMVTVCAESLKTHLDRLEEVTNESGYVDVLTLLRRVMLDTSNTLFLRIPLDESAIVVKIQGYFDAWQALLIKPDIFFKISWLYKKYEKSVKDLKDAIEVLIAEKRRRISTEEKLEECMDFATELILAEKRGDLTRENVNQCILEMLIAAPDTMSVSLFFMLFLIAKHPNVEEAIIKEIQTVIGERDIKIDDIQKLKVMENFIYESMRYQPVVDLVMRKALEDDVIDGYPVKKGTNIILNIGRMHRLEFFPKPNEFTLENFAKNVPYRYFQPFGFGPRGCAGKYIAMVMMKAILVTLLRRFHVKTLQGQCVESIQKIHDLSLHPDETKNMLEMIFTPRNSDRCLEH
The assay can be described thus: CYP19/MFC High Throughput Inhibitor Screening Kit (Corning No. […]), fluorogenic enzyme inhibition. Type of assay: biochemical.

On to `C=C1/C(=C\C=C2/CCC[C@]3(C)[C@@H]([C@H](C)CC[C@@H](O)C(C)C)CC[C@@H]23)C[C@@H](O)C[C@@H]1O` [PRI-2191], for which half-maximal inhibition (IC50) required 152 ± 30.5 nM.

The values are drawn from publication PMC7967212, “Vitamin D Compounds PRI-2191 and PRI-2205 Enhance Anastrozole Activity in Human Breast Cancer Models” (International Journal of Molecular Sciences, 2021).
